Measurements reported in the supplement of paper PMC10307832.

Columns and labels:
Assay in all cases: relative viability (nuclei count vs DMSO), 5 days (fraction); higher = more cells survive
Bexarotene + Pictilisib = compound: C=C(c1ccc(C(=O)O)cc1)c1cc2c(cc1C)C(C)(C)CCC2(C)C [Bexarotene] + CS(=O)(=O)N1CCN(Cc2cc3nc(-c4cccc5[nH]ncc45)nc(N4CCOCC4)c3s2)CC1 [Pictilisib] (partner 1 µM)
How it was run: (§1)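 A single step with final 0.05% Triton X-100, 1% formaldehyde and 1 ug/ml Hoechst fixed the cells and stained nuclei 5 days after treatment. Lung cancer cell lines in 1536-well plates had been treated by pin tool the day after seeding with one drug alone or a fixed anchor-drug dose plus five library-drug doses (not always all listed) in √10 steps, and nuclei were counted on 4× images. Relative viability is the ratio of nuclei in treated wells to nuclei in vehicle wells, taken as the median of duplicate plates.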

Bexarotene + Palbociclib = compound: C=C(c1ccc(C(=O)O)cc1)c1cc2c(cc1C)C(C)(C)CCC2(C)C [Bexarotene] + CC(=O)c1c(C)c2cnc(Nc3ccc(N4CCNCC4)cn3)nc2n(C2CCCC2)c1=O [Palbociclib] (partner 0.5 µM)
How it was run: as §1

Bexarotene + OSI-027 = compound: C=C(c1ccc(C(=O)O)cc1)c1cc2c(cc1C)C(C)(C)CCC2(C)C [Bexarotene] + COc1cccc2cc(-c3nc([C@H]4CC[C@H](C(=O)O)CC4)n4ncnc(N)c34)[nH]c12 [OSI-027] (partner 0.5 µM)
How it was run: as §1

Bexarotene + Luminespib = compound: C=C(c1ccc(C(=O)O)cc1)c1cc2c(cc1C)C(C)(C)CCC2(C)C [Bexarotene] + CCNC(=O)c1noc(-c2cc(C(C)C)c(O)cc2O)c1-c1ccc(CN2CCOCC2)cc1 [Luminespib] (partner 0.01 µM)
How it was run: as §1

Cell Line | relative viability (Bexarotene + Pictilisib; first compound 0.08 µM) | relative viability (Bexarotene + Pictilisib; first compound 0.253 µM) | relative viability (Bexarotene + Pictilisib; first compound 0.8 µM) | relative viability (Bexarotene + Pictilisib; first compound 2.53 µM) | relative viability (Bexarotene + Pictilisib; first compound 8 µM) | relative viability (Bexarotene + Palbociclib; first compound 0.08 µM) | relative viability (Bexarotene + Palbociclib; first compound 0.253 µM) | relative viability (Bexarotene + Palbociclib; first compound 0.8 µM) | relative viability (Bexarotene + Palbociclib; first compound 2.53 µM) | relative viability (Bexarotene + Palbociclib; first compound 8 µM) | relative viability (Bexarotene + OSI-027; first compound 0.08 µM) | relative viability (Bexarotene + OSI-027; first compound 0.253 µM) | relative viability (Bexarotene + OSI-027; first compound 0.8 µM) | relative viability (Bexarotene + OSI-027; first compound 2.53 µM) | relative viability (Bexarotene + OSI-027; first compound 8 µM) | relative viability (Bexarotene + Luminespib; first compound 0.08 µM) | relative viability (Bexarotene + Luminespib; first compound 0.253 µM) | relative viability (Bexarotene + Luminespib; first compound 0.8 µM) | relative viability (Bexarotene + Luminespib; first compound 2.53 µM) | relative viability (Bexarotene + Luminespib; first compound 8 µM)
HCC-44 | 0.661 | 0.663 | 0.479 | 0.579 | 0.459 | 1 | 1.03 | 0.836 | 0.93 | 0.946 | 0.58 | 0.589 | 0.553 | 0.496 | 0.502 | 1.31 | 1.03 | 1.08 | 1.02 | 0.977
NCI-H460 | 0.471 | 0.343 | 0.396 | 0.302 | 0.371 | 0.147 | 0.156 | 0.237 | 0.105 | 0.158 | 0.844 | 0.727 | 0.704 | 0.701 | 0.618 | 0.0252 | 0.0297 | 0.0376 | 0.0318 | 0.0222
SK-LU-1 | 0.717 | 0.663 |  | 0.567 | 0.63 | 0.419 | 0.394 | 0.326 | 0.393 | 0.37 | 0.41 | 0.395 |  | 0.352 | 0.351 | 0.201 | 0.188 |  | 0.177 | 0.173
NCI-H322M | 0.573 | 0.408 | 0.544 | 0.514 | 0.502 | 0.437 | 0.469 | 0.487 | 0.531 | 0.532 | 0.698 | 0.351 | 0.637 | 0.585 | 0.623 | 1.05 | 0.902 | 0.862 | 0.982 | 0.812
EKVX | 0.352 | 0.432 | 0.446 | 0.357 | 0.404 | 0.37 | 0.366 | 0.384 | 0.438 | 0.362 | 0.706 | 0.661 | 0.698 | 0.63 | 0.648 | 0.918 | 0.837 | 0.922 | 0.787 | 0.851
NCI-H1734 | 0.559 | 0.462 | 0.4 | 0.442 | 0.43 | 0.333 | 0.33 | 0.292 | 0.282 | 0.318 | 0.616 | 0.64 | 0.591 | 0.493 | 0.543 | 0.2 | 0.182 | 0.177 | 0.172 | 0.195
ABC-1 | 0.662 | 0.63 | 0.606 | 0.697 | 0.615 | 0.617 | 0.676 | 0.662 |  | 0.655 | 0.466 | 0.582 | 0.565 | 0.362 | 0.449 | 0.591 | 0.654 | 0.597 | 0.576 | 0.677
NCI-H520 | 0.324 | 0.244 | 0.293 | 0.286 | 0.235 | 0.271 | 0.182 | 0.198 | 0.229 | 0.207 | 0.238 | 0.207 | 0.276 | 0.222 | 0.241 | 0.236 | 0.22 | 0.229 | 0.22 | 0.226
EPLC-272H | 0.373 | 0.308 | 0.33 | 0.298 | 0.352 | 0.313 | 0.358 | 0.312 | 0.314 | 0.354 | 0.292 | 0.277 | 0.26 | 0.283 | 0.272 | 0.304 | 0.332 | 0.252 | 0.303 | 0.258
UMC-11 | 0.973 | 0.814 | 0.756 | 0.805 | 0.802 | 0.308 | 0.355 | 0.316 | 0.267 | 0.339 | 0.468 | 0.515 | 0.419 | 0.436 | 0.432 | 1.04 | 0.983 | 0.866 | 0.911 | 0.969
NCI-H1792 | 0.244 | 0.204 | 0.213 | 0.252 | 0.205 | 0.706 | 0.611 | 0.616 | 0.588 | 0.607 | 0.739 | 0.757 | 0.681 | 0.764 | 0.68 | 0.519 | 0.406 | 0.49 | 0.361 | 0.286
NCI-H1993 | 0.803 | 0.846 | 0.899 | 0.866 | 0.836 | 0.654 | 0.668 | 0.597 | 0.693 | 0.733 | 0.588 | 0.498 | 0.564 | 0.54 | 0.564 | 1.09 | 0.783 | 0.792 | 0.859 | 0.815
NCI-H1793 | 0.52 | 0.547 | 0.508 | 0.316 | 0.431 | 0.31 | 0.318 | 0.284 | 0.264 | 0.327 | 0.339 | 0.319 | 0.313 | 0.203 | 0.311 | 0.2 | 0.152 | 0.164 | 0.15 | 0.335
